“And” between values parts separate entries of the source, which are not always exact repeats. Equal values may be shown once. ± gives the expanded uncertainty stated by the source.

A short description of this series: molar heat capacity at constant pressure. The following applies: 5000 kPa, Liquid, thermal relaxation.

Consider `CC(F)(F)F` [1,1,1-trifluoroethane], for which the “molar heat capacity at constant pressure” value is reported as 136.15 ± 6.7 J/K/mol (310 K); 140.35 ± 7.6 J/K/mol (315 K); 145.39 ± 7.6 J/K/mol (320 K); 150.43 ± 7.6 J/K/mol (325 K); 155.47 ± 8.4 J/K/mol (330 K); 162.2 ± 8.4 J/K/mol (335 K). Besides, the “molar heat capacity at constant pressure” value is 173.96 ± 9.2 J/K/mol (340 K); 189.93 ± 10 J/K/mol and 192.45 ± 10 J/K/mol (345 K); 224.39 ± 12 J/K/mol (350 K).

Turning to `FCF` [difluoromethane], the “molar heat capacity at constant pressure” value worked out at 106.65 ± 5.7 J/K/mol (310 K); 109.77 ± 5.7 J/K/mol (315 K); 113.41 ± 5.7 J/K/mol (320 K); 119.65 ± 6.2 J/K/mol (325 K); 125.9 ± 6.8 J/K/mol (330 K); 138.9 ± 7.3 J/K/mol (335 K). In addition, the “molar heat capacity at constant pressure” value (340 K) is on record as 164.39 ± 8.3 J/K/mol.

For `FC(F)C(F)(F)F` [pentafluoroethane], the “molar heat capacity at constant pressure” value reads like this: (310 K) 154.83 ± 8.4 J/K/mol; (315 K) 159.63 ± 8.4 J/K/mol; (320 K) 163.23 ± 8.4 J/K/mol; (325 K) 171.63 ± 8.4 J/K/mol; (330 K) 182.43 ± 9.6 J/K/mol and 183.63 ± 9.6 J/K/mol; (335 K) 193.23 ± 9.6 J/K/mol. For the same compound, the “molar heat capacity at constant pressure” value is, setting by setting: (340 K) 217.24 ± 11 J/K/mol and 212.44 ± 11 J/K/mol; (345 K) 242.44 ± 13 J/K/mol; (350 K) 282.05 ± 14 J/K/mol.

These data come from the NIST ThermoML archive (doi:10.1021/je900661c).
